Test results as given in US10220034B2, “Hepatitis B viral assembly effectors” (Indiana University Research and Technology Corp., priority 2013, dated 2019).

Columns and labels:
AD38 cells = test: Activity of test compounds on viral production from AD38 cells (qPCR viral load); type: cell-based, HBV; parameters: key: (+) depicting meets criteria for significant activity; (++) depicting exceeds criteria; conditions: 5 days, supernatant qPCR
Description: AD38 cells grown in a 175 cm flash with Growth Medium (DMEM/F12 (1:1) (cat#SH30023.01, Hyclone, 1× Pen/step (cat#: 30-002-CL, Mediatech, Inc), 10% FBS (cat#: 101, Tissue Culture Biologics), 250 μg/mL G418 (cat#: 30-234-CR, Mediatech, Inc), 1 μg/mL Tetracycline (cat#: T3325, Teknova)) were detached with 0.25% trypsin. Tetracycline-free treatment medium (15 mL DMEM/F12 (1:1) (cat#SH30023.01, Hyclone, 1× Pen/step (cat#: 30-002-CL, Mediatech, Inc), with 2% FBS, Tet-system approved (cat#: 631106, Clontech) were then added to mix and spun at 1300 rpm for 5 min. Pelleted cells were then re-suspended/washed with 50 mL of 1×PBS 2 times and 10 mL treatment medium one time. AD38 cells were then re-suspended with 10 mL of treatment medium and counted. Wells of a collagen coated 96-well NUNC microtiter plate were seeded at 50,000/well in 180 μL of treatment medium, and 20 μL of either 10% DMSO (Control) or a 10× solution of test compound in 10% DMSO in treatment media was added for as final compound concentration 1, 3, or 10 μM (1.0% final [DMSO]) and plates were incubated for 5 days at 37° C.
Subsequently viral load production was assayed by quantitative PCR of the core sequence. Briefly, 5 μL of clarified supernatant was added to a PCR reaction mixture that contained forward primers HBV-f 5′-[…]-3′, Reverse primers HBV-r 5′-[…]-3′ and Fluorescent TaqMan™ Probes HBV-probe 5′-FAM/[…]/ZEN/[…]/31ABkFQ-3′ in Quanta Biosciences PerfeCTa® qPCR Toughmix®, and was subsequently on an Applied Biosystems VIIA7 in a final volume of 20 μL. The PCR mixture was incubated at 45° C. for 5 minutes, then 95° C. for 10 min, followed by 40 cycles of 10 seconds at 95° C. and 20 seconds at 60° C. Viral load was quantitated against known standards by using ViiA™ 7 Software. Viral load in the supernatant from wells with treated cells were compared against viral load in supernatant from DMSO control wells (≥3 per plate). In Table 4, concentrations of test compound causing reductions in viral load greater than at least 3 standard deviations from the DMSO controls across all plates were considered active, with (+) depicting meets criteria for significant activity, and (++) depicting exceeds criteria.

HBV Cp = test: Capsid assembly assay (fluorescence quenching); conditions: 10 μM compound, control reactions with no drug show 25±5% assembly

| Compound | reduction in viral load vs DMSO controls (AD38 cells; test concentration 3 μM) | reduction in viral load vs DMSO controls (AD38 cells; test concentration 10 μM) | % Capsid formation at 24 h (10 μM) (HBV Cp) [%] | reduction in viral load vs DMSO controls (AD38 cells; test concentration 1 μM) |
| --- | --- | --- | --- | --- |
| Cc1ccc(Nc2cc(C)nc(N3CCN(S(=O)(=O)c4ccc(C)cc4)CC3)n2)cc1 [compound 1] | ++ | ++ | 95 |  |
| Cc1ccc(Nc2cc(C)nc(N3CCN(S(=O)(=O)c4ccc(Cl)cc4)CC3)n2)cc1 [compound 3] | ++ | ++ | 94 | ++ |
| CCc1ccc(S(=O)(=O)N2CCN(c3nc(C)cc(Nc4ccc(C)cc4)n3)CC2)cc1 [compound 5] | ++ | ++ | 91 |  |
| Cc1ccc(Nc2cc(C)nc(N3CCN(S(=O)(=O)c4ccc(C(C)C)cc4)CC3)n2)cc1 [compound 6] | ++ | ++ | 92 |  |
| Cc1ccc(Nc2cc(C)nc(N3CCN(S(=O)(=O)c4cccc(C)c4)CC3)n2)cc1 [compound 7] | ++ | ++ | 79 | + |
| CCOc1ccc(S(=O)(=O)N2CCN(c3nc(C)cc(Nc4ccc(C)cc4)n3)CC2)cc1 [compound 8] | ++ | ++ | 98 |  |
| CC(=O)Nc1ccc(S(=O)(=O)N2CCN(c3nc(C)cc(Nc4ccc(C)cc4)n3)CC2)cc1 [compound 10] | ++ | ++ | 96 | + |
| COc1ccc(S(=O)(=O)N2CCN(c3nc(C)cc(Nc4ccc(C)cc4)n3)CC2)cc1 [compound 11] | ++ | ++ | 89 |  |
| Cc1ccc(Nc2cc(C)nc(N3CCN(S(=O)(=O)c4cccc(F)c4)CC3)n2)cc1 [compound 15] | ++ | ++ | 76 |  |
| COc1cccc(S(=O)(=O)N2CCN(c3nc(C)cc(Nc4ccc(C)cc4)n3)CC2)c1 [compound 16] | ++ | ++ | 95 | ++ |
| COc1ccc(S(=O)(=O)N2CCN(c3nc(C)cc(Nc4ccc(C)cc4)n3)CC2)cc1OC [compound 18] | ++ | ++ | 71 |  |
| Cc1ccc(Nc2cc(C)nc(N3CCN(S(=O)(=O)c4ccc(N(C)C)cc4)CC3)n2)cc1 [compound 23] | ++ | ++ | 88 | + |
| CNc1ccc(S(=O)(=O)N2CCN(c3nc(C)cc(Nc4ccc(C)cc4)n3)CC2)cc1 [compound 24] | ++ | ++ | 96 |  |
| Cc1ccc(Nc2cc(C)nc(N3CCN(S(=O)(=O)c4ccc(N)cc4)CC3)n2)cc1 [compound 26] | ++ | ++ | 96 |  |
| Cc1ccc(Nc2cc(C)nc(N3CCN(S(=O)(=O)c4ccc(OC(C)(C)C)cc4)CC3)n2)cc1 [compound 27] | ++ | ++ | 84 |  |
| Cc1ccc(Nc2cc(C)nc(N3CCN(S(=O)(=O)c4ccc(OC(F)F)cc4)CC3)n2)cc1 [compound 28] | ++ | ++ | 96 | ++ |
| CCc1cc(Nc2ccc(C)cc2)nc(N2CCN(S(=O)(=O)c3ccc(OC)cc3)CC2)n1 [compound 29] | ++ | ++ | 94 | ++ |
| COc1ccc(S(=O)(=O)N2CCN(c3nc(Nc4ccc(C)cc4)cc(C(C)(C)C)n3)CC2)cc1 [compound 31] | ++ | ++ | 87 |  |
| CCCc1cc(Nc2ccc(C)cc2)nc(N2CCN(S(=O)(=O)c3ccc(OC)cc3)CC2)n1 [compound 32] | ++ | ++ | 69 | ++ |
| COc1ccc(S(=O)(=O)N2CCN(c3nc(C)cc(Nc4ccc(Br)cc4)n3)CC2)cc1 [compound 34] | ++ | ++ | 96 | ++ |
| CCc1ccc(Nc2cc(C)nc(N3CCN(S(=O)(=O)c4ccc(OC)cc4)CC3)n2)cc1 [compound 35] | ++ | ++ | 81 | ++ |
| COc1ccc(S(=O)(=O)N2CCN(c3nc(C)cc(Nc4ccc(Cl)cc4)n3)CC2)cc1 [compound 37] | ++ | ++ | 93 | ++ |
| COc1ccc(S(=O)(=O)N2CCN(c3nc(C)cc(Nc4ccc(C(F)(F)F)cc4)n3)CC2)cc1 [compound 40] | ++ | ++ | 91 | ++ |
| COc1ccc(S(=O)(=O)N2CCN(c3nc(C)cc(Nc4ccc(C#N)cc4)n3)CC2)cc1 [compound 42] |  | ++ | 69 |  |
